One may read the melting point as the temperature, or range, at which the solid turns liquid.

Experimental findings from US6448260B2, “Endothelin receptor antagonists” (SmithKline Beecham Corporation, priority 1991, dated 2002) are described below.

Structures can show the parent of a compound that is named as a salt.

As to `O=C(O)[C@H]1[C@H](c2ccc3c(c2)OCO3)c2ccc(OCc3ccccc3)cc2[C@@H]1c1ccc2c(c1)OCO2` (racemic) [Example 116, (1RS, 2SR, 3SR)-5-Benzyloxy-1,3-bis(3,4-methylenedioxyphenyl)indane-2 carboxylic acid], the melting point lay within 191 to 193 °C.
The compound `CCc1ccc([C@@H]2c3ccccc3[C@H](c3ccccc3)[C@H]2C(=O)O)cc1` (racemic) [Example 20, (1RS, 2RS, 3SR)-1-(4-Ethylphenyl)-3-phenylindane-2-carboxylic acid] registered a melting point of 163 to 164 °C.
Compound `C=CCCOc1ccc2c(c1)[C@@H](c1ccc(OC)cc1)[C@H](C(=O)O)[C@@H]2c1ccc2c(c1)OCO2` (racemic) [Example 106, (1RS, 2SR, 3RS)-5-(3-Buten-1-yloxy)-3-(4-methoxyphenyl)-1-(3,4-methylenedioxyphenyl)indane-2-carboxylic acid] yielded a melting point of 127 to 129 °C.
For `C=CCOc1cc(OC)ccc1[C@H]1c2cc(OCCC)ccc2[C@@H](c2ccc3c(c2)OCO3)[C@@H]1C(=O)O` (racemic) [Example 100, (1RS, 2SR, 3RS)-1-(3,4-Methylenedioxyphenyl)-3-[4methoxy-2-(2-propen-1-yloxy)phenyl]-5-(prop-1-yloxy)indane-2-carboxylic acid], the melting point lay within 168 to 170 °C.
Compound `CCCOc1ccc2c(c1)[C@H](c1ccc(OCC)cc1OCC(=O)O)[C@@H](C(=O)O)[C@@H]2c1ccc2c(c1)OCO2` (racemic) [Example 96, (1RS, 2SR, 3RS)-3-(2-Carboxymethoxy-4-ethyloxyphenyl)-1-(3,4-methylenedioxyphenyl)-5-(prop-1-yloxy)indane-2-carboxylic acid] displayed a melting point of 194 to 196 °C.
For the compound `CCCOc1ccc2c(c1)[C@H](c1ccc(OC)cc1CCC)[C@@H](C(=O)O)[C@@H]2c1ccc2c(c1)OCO2` (racemic) [Example 61, (1RS, 2SR, 3SR)-3-[4-Methoxy-2-(prop-1-yl)phenyl]-1-(3,4-methylenedioxyphenyl)-5-(prop-1-yloxy)indane-2-carboxylic acid], the melting point lay in the range of 155 to 156 °C.
As to `CCCOc1ccc2c(c1)[C@H](c1ccc(OC)cc1OCOC)[C@@H](C(=O)O)[C@@H]2c1ccc2c(c1)OCO2` (racemic) [Example 31, (1RS, 2SR, 3RS)-3-(4-methoxy-2-methoxymethoxyphenyl)1-(3,4-methylenedioxyphenyl)-5-(prop-1-yloxy)indane-2-carboxylic acid], the melting point lay within 161 to 163 °C.
Then `CCCOc1ccc2c(c1)[C@H](c1ccc(OC)cc1OCC#N)[C@@H](C(=O)O)[C@@H]2c1ccc2c(c1)OCO2` (racemic) [Example 50, (1RS,2SR,3RS)-3-(2-Cyanomethoxy-4-methoxyphenyl)-1-(3,4-methylenedioxyphenyl)-5-(prop-1-yloxy)indane-2-carboxylic acid], with 199 to 201 °C; and `CCOc1ccc([C@@H]2c3ccccc3[C@H](c3ccc4c(c3)OCO4)[C@H]2C(=O)O)cc1` (racemic) [Example 73, (1RS, 2SR, 3SR)-1-(4-Ethoxyphenyl)-3-(3,4-methylenedioxyphenyl)indane-2-carboxylic acid], with 169 to 170 °C.
As for `COc1ccc([C@@H]2c3ccccc3[C@H](c3cc(OC)c(OC)c(OC)c3)[C@H]2C(=O)O)cc1` (racemic) [Example 72, (1RS, 2SR, 3S R)-1-(4-Methoxyphenyl)-3-(3,4,5-trimethoxyphenyl)indane-2-carboxylic acid], the figure is 197 to 198 °C; as for `O=C(O)C1[C@H](c2ccc3c(c2)OCO3)c2ccccc2[C@H]1c1ccc2c(c1)OCO2` (racemic) [Example 6, (1RS, 3RS)-1,3-Di-(3,4-methylenedioxyphenyl)-indane-2-carboxylic acid], 182 to 185 °C.
On to `CCCOc1cccc2c1[C@@H](c1ccc3c(c1)OCO3)[C@@H](C(=O)O)[C@H]2c1ccc(OC)cc1OCC(=O)O` (racemic) [Example 91, (1RS, 2RS, 3RS)-1-(2-Carboxymethoxy-4-methoxyphenyl]-3-(3,4-methylenedioxyphenyl)-4-(prop-1-yloxy)indane-2-carboxylic acid], for which the melting point was in the range of 201 to 206 °C.
As to `O=C(O)C1[C@H](c2ccccc2)c2ccccc2[C@H]1c1ccccc1` (racemic) (as salt: sodium) [Example 21, (1RS, 3RS)-1,3-Diphenylindane-2-carboxylic acid], the melting point is 220 to 222 °C (dec.).
`CCCOc1ccc2c(c1)[C@H](c1ccccc1OCCC)[C@@H](C(=O)O)[C@@H]2c1ccc2c(c1)OCO2` (racemic) [Example 35, (1RS, 2SR, 3RS)-1-(3,4-Methylenedioxyphenyl)-3-[2-(prop-1-yloxy)phenyl]-5-(prop-1-yloxy)indane-2-carboxylic acid] came in with a melting point of 179 to 180 °C.
As for `CCCOc1ccc2c(c1)[C@@H](c1ccc(OC)cc1OCC(=O)O)[C@@H](C(=O)O)[C@H]2c1cc2c(cc1OC)OCO2` (racemic) [Example 30, (1RS, 2SR, 3SR)-3-(2-Carboxymethoxy-4-methoxyphenyl)-1-(2-methoxy-4,5-methylenedioxyphenyl)-5-(prop-1-yloxy)-indane-2-carboxylic acid], the figure is 188 to 190 °C.
